Source: patent publication US20230060425A1, “FUSED BICYCLIC HETEROCYCLE DERIVATIVES AS PESTICIDES” (Bayer Aktiengesellschaft, priority 2019, published 2023)
Read-outs that look alike come from different tables or passages of the source.

Key:
Type in all cases: in vivo
Ctenocephalides felis [1] = experiment: Ctenocephalides felis in vitro contact test with adult cat fleas; settings: application rate 5 μg/cm^2 (=500 g/ha); after 48 h; fleas dead or moribund
Description: Ctenocephalides felis—In Vitro Contact Tests with Adult Cat Fleas
(§1) For the coating of the test tubes, 9 mg of active compound are first dissolved in 1 ml of acetone p.a. and then diluted to the desired concentration with acetone p.a. 250 μl of the solution are distributed homogeneously on the inner walls and the base of a 25 ml glass tube by turning and rocking on an orbital shaker (rocking rotation at 30 rpm for 2 h). With 900 ppm of active compound solution and internal surface area 44.7 cm^2, given homogeneous distribution, an area-based dose of 5 μg/cm^2 is achieved.
After the solvent has evaporated off, the tubes are populated with 5-10 adult cat fleas (Ctenocephalides felis), sealed with a perforated plastic lid and incubated in a horizontal position at room temperature and ambient humidity. After 48 h, efficacy is determined. To this end, the tubes are stood upright and the fleas are knocked to the base of the tube. Fleas which remain motionless at the base or move in an uncoordinated manner are considered to be dead or moribund.
100% efficacy means that all the fleas were dead or moribund. 0% efficacy means that no fleas were harmed.

Ctenocephalides felis [2] = experiment: Ctenocephalides felis oral test; settings: 48 h, application rate 100 ppm, in citrated cattle blood, after 2 days, read-out: efficacy (kill in %)
Description: Ctenocephalides felis—Oral Test
(§2) Solvent: Dimethyl sulfoxide
To produce a suitable active compound formulation, 10 mg of active compound are mixed with 0.5 ml of dimethyl sulfoxide. Dilution with citrated cattle blood gives the desired concentration.
About 20 unfed adult cat fleas (Ctenocephalides felis) are placed into a chamber which is closed at the top and bottom with gauze. A metal cylinder whose bottom end is closed with parafilm is placed onto the chamber. The cylinder contains the blood/active compound formulation, which can be imbibed by the fleas through the parafilm membrane.
After 2 days, the kill in % is determined. 100% means that all of the fleas have been killed; 0% means that none of the fleas have been killed.

Spodoptera frugiperda [3] = experiment: Spodoptera frugiperda spray test; settings: foliar, 168 h, application rate 100 g/ha, maize leaf discs, after 7 days, read-out: efficacy
Description: Spodoptera frugiperda—Spray Test
(§3) Solvent: • 78.0 parts by weight of acetone • 1.5 parts by weight of dimethylformamide
(§4) Emulsifier: alkylaryl polyglycol ether
To produce further test concentrations, the formulation is diluted with emulsifier-containing water.
After 7 days, the efficacy in % is determined. 100% means that all the caterpillars have been killed; 0% means that no caterpillar has been killed.

Meloidogyne incognita = Meloidogyne incognita test; settings: 336 h, application rate 20 ppm, lettuce, after 14 days, formation of galls, read-out: nematicidal efficacy
Description: Meloidouyne incognita Test
Solvent: 125.0 parts by weight of acetone
To produce a suitable active compound formulation, 1 part by weight of active compound is mixed with the stated amount of solvent and the concentrate is diluted to the desired concentration with water.
Vessels are filled with sand, active compound solution, an egg/larvae suspension of the southern root-knot nematode (Meloidogyne incognita) and lettuce seeds. The lettuce seeds germinate and the plants develop. The galls develop on the roots.
After 14 days, the nematicidal efficacy in % is determined by the formation of galls. 100% means that no galls were found; 0% means that the number of galls on the treated plants corresponds to the untreated control.

Myzus persicae [4] = experiment: Myzus persicae oral test; settings: 120 h, application rate 4 ppm, after 5 days, read-out: efficacy
Description: Solvent: 100 parts by weight of acetone
To produce a suitable preparation of active compound, 1 part by weight of active compound is dissolved using the specified parts by weight of solvent and made up with water until the desired concentration is attained.
50 μl of the active compound preparation are transferred into microtitre plates and made up to a final volume of 200 μl with 150 μl of IPL41 insect medium (33%+15% sugar). Subsequently, the plates are sealed with parafilm, which a mixed population of green peach aphids (Myzus persicae) within a second microtitre plate is able to puncture and imbibe the solution through it.
(§5) After 5 days, the efficacy in % is determined. 100% means that all the aphids have been killed; 0% means that no aphids have been killed.

Diabrotica balteata = Diabrotica balteata spray test; settings: 168 h, application rate 160 μg/cavity (μg/well), wheat grains, after 7 days, read-out: efficacy
Description: Diabrotica balteata—Spray Test
(§6) Solvent: • 78 parts by weight of acetone • 1.5 parts by weight of dimethylformamide
as §4
(§7) To produce a suitable active compound preparation, 1 part by weight of active compound is dissolved using the stated parts by weight of solvent and made up with water containing an emulsifier concentration of 1000 ppm until the desired concentration is attained. To produce further test concentrations, the formulation is diluted with emulsifier-containing water.
Pre-swollen wheat grains (Triticum aestivum) are incubated in a multiwell plate filled with agar and a little water for one day (5 seed grains per well). The germinated wheat grains are sprayed with an active compound preparation of the desired concentration. Subsequently, each cavity is infected with 10-20 beetle larvae of Diabrotica balteata.
After 7 days, the efficacy in % is determined. 100% means that all wheat plants have grown as in the untreated, uninfected control; 0% means that no wheat plant has grown.

Phaedon cochleariae = Phaedon cochleariae spray test; settings: foliar, 168 h, application rate 100 g/ha, Chinese cabbage leaf discs, after 7 days, read-out: efficacy
Description: Phaedon cochleariae—Spray Test
as §3, §4, §7
Discs of Chinese cabbage leaves (Brassica pekinensis) are sprayed with an active compound formulation of the desired concentration and, after drying, populated with larvae of the mustard beetle (Phaedon cochleariae).
After 7 days, the efficacy in % is determined. 100% means that all the beetle larvae have been killed; 0% means that no beetle larvae have been killed.

Myzus persicae [5] = experiment: Myzus persicae spray test; settings: foliar, 120 h, application rate 100 g/ha, Chinese cabbage leaf discs, after 5 days, read-out: efficacy
Description: Myzus persicae—Spray Test
as §6, §4, §7
Discs of Chinese cabbage leaves (Brassica pekinensis) infested by all stages of the green peach aphid (Myzus persicae) are sprayed with an active compound formulation of the desired concentration.
as §5

Aphis gossypii = Aphis gossypii spray test (APHIGO S); settings: 144 h, 6 dat, read-out: % Efficacy
Description: Aphis gossypii—Spray Test (APHIGO S)
(§8) Solvent: 14 parts by weight of dimethylformamide
as §4
(§9) To produce a suitable active compound preparation, 1 part by weight of active compound is dissolved using the stated parts by weight of solvent and made up with water containing an emulsifier concentration of 1000 ppm until the desired concentration is attained. To produce further test concentrations, the formulation is diluted with emulsifier-containing water. If the addition of ammonium salts or/and penetrants is required, these are each added in a concentration of 1000 ppm to the formulation solution.
Cotton plants (Gossypium hirsutum) heavily infested by the cotton aphid (Aphis gossypii) are sprayed with an active compound formulation of the desired concentration.
After the desired time, the kill in % is determined. 100% means that all the aphids have been killed; 0% means that no aphids have been killed.

Myzus persicae [6] = experiment: Myzus persicae spray test on bell pepper plants (MYZUPE S); settings: 144 h, 6 dat, read-out: % Efficacy
Description: Myzus persicae—Spray Test (MYZUPE S)
as §8, §4, §9
Bell pepper plants (Capsicum annuum) severely infested with the green peach aphid (Myzus persicae) are treated by spraying with the active compound formulation in the desired concentration.
After the desired time, the kill in % is determined. 100% means that all the animals have been killed; 0% means that no animals have been killed.

Spodoptera frugiperda [7] = experiment: Spodoptera frugiperda spray test (SPODFR), comparative; settings: 168 h, 0.8 g of ai/ha, 7 dat, read-out: % Efficacy
Description: Spodoptera frugiperda—Spray Test (SPODFR)
as §3, §4, §7
Leaf discs of maize (Zea mays) are sprayed with an active compound formulation of the desired concentration and, after drying, populated with caterpillars of the armyworm (Spodoptera frugiperda).
After the desired period of time, the efficacy in % is determined. 100% means that all the caterpillars have been killed; 0% means that no caterpillar has been killed.

Spodoptera frugiperda [8] = experiment: Spodoptera frugiperda test on maize plants (SPODFR S); settings: 6 dai, read-out: % Efficacy
Description: Spodoptera frugiperda Test (SPODFR S)
as §8
Emulsifier: 2 parts by weight of alkylaryl polyglycol ether
To produce a suitable active compound formulation, 1 part by weight of active compound is dissolved with the stated parts by weight of solvent and emulsifier and made up to the desired concentration with water. To produce further test concentrations, water is used for dilution. In the event that addition of ammonium salts or/and penetrants (rapeseed oil methyl ester) is required, these are each pipetted in at a concentration of 1000 ppm after the finished formulation solution has been diluted.
Maize plants (Zea mays) are sprayed with an active compound formulation of the desired concentration and, in each case after 5, 12 and 19 days, populated with 5 caterpillars (L2) of the fall armyworm (Spodoptera frugiperda).
The kill is determined 6 days after the infection. 100% means that all the caterpillars have been killed and 0% means that none of the caterpillars have been killed.

Rhipicephalus sanguineus = Rhipicephalus sanguineus in vitro contact test with adult brown dog ticks; settings: application rate 5 μg/cm^2; after 48 h; ticks dead or moribund
Description: Rhipicephalus sanguineus—In Vitro Contact Tests with Adult Brown Dog Ticks
as §1
After the solvent has evaporated off, the tubes are populated with 5-10 adult dog ticks (Rhipicephalus sanguineus), sealed with a perforated plastic lid and incubated in a horizontal position in the dark at room temperature and ambient humidity. After 48 h, efficacy is determined. To this end, the ticks are knocked to the base of the tube and incubated on a hotplate at 45-50° C. for not more than 5 min. Ticks which remain motionless on the base or move in such an uncoordinated manner that they are unable to deliberately avoid the heat by climbing upwards are considered to be dead or moribund.
An efficacy of 100% means that all the ticks were dead or moribund. 0% efficacy means that none of the ticks were harmed.

Myzus persicae [9] = experiment: Myzus persicae spray test (MYZUPE), comparative; settings: 120 h, 5 dat, read-out: % Efficacy
Description: Myzus persicae—Spray Test (MYZUPE)
as §3, §4, §7
Discs of Chinese cabbage leaves (Brassica pekinensis) infested by all stages of the green peach aphid (Myzus persicae) are sprayed with an active compound preparation of the desired concentration.
After the desired period of time, the efficacy in % is determined. 100% means that all the aphids have been killed; 0% means that no aphids have been killed.

Lucilia cuprina = Lucilia cuprina test; settings: application rate 100 ppm; L1 larvae; after 2 days
Description: as §2
To produce a suitable active compound formulation, 10 mg of active compound are mixed with 0.5 ml of dimethyl sulfoxide, and the concentrate is diluted with water to the desired concentration.
About 20 L1 larvae of the Australian sheep blowfly (Lucilia cuprina) are transferred into a test vessel containing minced horsemeat and the active compound formulation of the desired concentration.
After 2 days, the kill in % is determined. 100% means that all the larvae have been killed; 0% means that no larvae have been killed.

| Compound | efficacy (Ctenocephalides felis [1]) [%] | pest or weed control at 100 ppm (Ctenocephalides felis [2]) [%] | pest or weed control at 100 g/ha (Spodoptera frugiperda [3]) [%] | pest or weed control at 20 ppm (Meloidogyne incognita) [%] | pest or weed control at 4 ppm (Myzus persicae [4]) [%] | pest or weed control at 160 µg/well (Diabrotica balteata) [%] | pest or weed control at 100 g/ha (Phaedon cochleariae) [%] | pest or weed control at 100 g/ha (Myzus persicae [5]) [%] | Emax at 4 ppm (Aphis gossypii) [%] | Emax at 0.8 ppm (Myzus persicae [6]; 0.8 ppm) [%] | Emax at 4 ppm (Myzus persicae [6]; 4 ppm) [%] | Emax at 0.8 g/ha (Spodoptera frugiperda [7]) [%] | Emax at 0.16 ppm (Spodoptera frugiperda [8]; 120 h, infection 5 dat) [%] | Emax at 0.16 ppm (Spodoptera frugiperda [8]; 288 h, infection 12 dat) [%] | Emax at 0.8 ppm (Spodoptera frugiperda [8]; 288 h, 0.8 ppm, infection 12 dat) [%] | efficacy (Rhipicephalus sanguineus) [%] | Emax at 4 g/ha (Myzus persicae [9]; 4 g of ai/ha) [%] | Emax at 20 g/ha (Myzus persicae [9]; 20 g of ai/ha) [%] | efficacy (kill in %) (Lucilia cuprina) [%] |
| --- | --- | --- | --- | --- | --- | --- | --- | --- | --- | --- | --- | --- | --- | --- | --- | --- | --- | --- | --- |
| CCS(=O)(=O)c1c(-c2nc3cc(C(F)(F)C(F)(F)F)cnc3n2C)ncc2cc(Br)ccc12 [Example I-005] | 100 | 100 | 100 | 90 | 100 | 80 | – | – | – | – | – | – | – | – | – | – | – | – | – |
| CCS(=O)(=O)c1c(-c2nc3cc(C(F)(F)C(F)(F)F)ncc3n2C)ncc2c(C(F)(F)F)cccc12 [Example I-012] | 90 | 100 | 100 | – | 100 | – | 100 | 90 | – | – | – | – | – | – | – | – | – | – | – |
| CCS(=O)(=O)c1c(-c2nc3cc(C(F)(F)F)cnc3n2C)ncc2cc(C)ccc12 [Example I-015] | – | – | 83 | – | 100 | – | – | – | 100 | 25 | 100 | – | – | – | – | – | – | – | – |
| CCS(=O)(=O)c1c(-c2nc3cc(C(F)(F)F)nnc3n2C)ncc2cc(C(F)(F)F)ccc12 [Example I-025] | 100 | 100 | 100 | – | 100 | 100 | – | 90 | – | – | – | – | – | – | – | – | – | – | – |
| CCS(=O)(=O)c1c(-c2nc3cc(C(F)(F)F)cnc3n2C)ncc2c(C(F)(F)F)cccc12 [Example I-032] | 100 | – | 100 | – | 100 | – | 100 | 100 | 90 | – | – | 100 | 100 | 70 | 100 | 100 | 90 | 100 | – |
| CCS(=O)(=O)c1ccc2c(S(=O)(=O)CC)c(-c3nc4cc(C(F)(F)F)cnc4n3C)ncc2c1 [Example I-034, 4,7-Bis(ethylsulfonyl)-3-[3-methyl-6-(trifluoromethyl)imidazo[4,5-b]pyridin-2-yl]isoquinoline] | 100 | 100 | 83 | – | 100 | – | – | 90 | – | – | – | – | – | – | – | – | – | – | 100 |
